# Patent US20210330611A1, “THERAPY FOR NEUROLOGICAL DISEASES/DISORDERS” (priority 2020, published 2021)
# Where “and” joins values, the source holds several entries; their conditions need not be identical. Equal values may be shown once. Read-outs that look alike come from different tables or passages of the source.
# Legend:
# [1] = system: fibrin-induced microglia activation; assay: Image-based assay of fibrin-induced microglia activation (HTS and dose response); assay type: cell-based, rat; conditions: for inhibition at 10 µM: Rattus norvegicus, Microglia, read-out: Fibrin % inhibition
# [2] = system: LPS-induced microglia activation; assay: Image-based assay of LPS-induced microglia activation (HTS and dose response); assay type: cell-based, rat
# [3] = system: fibrin- and LPS-induced microglia activation; assay: cells; assay type: cell-based, rat
# primary rat microglia [4] = conditions: rat
# primary rat microglia [5] = assay: Cell toxicity (dead cells, size <150 μm2) in LPS assay
# primary rat microglia [6] = assay: Cell toxicity (dead cells, size <150 μm2) in coated fibrin (cFib) assay;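 further: share of dead cells sized under 150 µm2 at 10 µM in fibrin-stimulated microglia HTS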
# primary rat microglia [7] = system: primary rat microglia
# [8] = primary microglia HTS, fibrin stimulation, compounds at 10 μM
# [9] = primary microglia HTS, fibrin stimulation, increased cell size (>800 μm^2) as marker of activation
# [10] = Rattus norvegicus, Microglia, 48 h, primary microglia HTS, LPS stimulation; increased cell size (>800 μm^2) as marker of activation; read-out: LPS % inhibition
# [11] = Rattus norvegicus, Microglia, primary microglia HTS, LPS stimulation, compounds at 10 μM; read-out: LPS % inhibition
# [12] = classification by fibrin and LPS inhibition, HTS at 10 μM
# [13] = quadrant by fibrin and LPS inhibition in HTS of 1907 compounds
# [14] = primary microglia HTS, LPS stimulation, decreased size (<150 μm^2) as marker of toxicity
# [15] = primary microglia HTS, fibrin stimulation, decreased size (<150 μm^2) as marker of toxicity
# [16] = Rattus norvegicus, Microglia, 48 h, read-out: LPS % inhibition
# [17] = Rattus norvegicus, Microglia, read-out: LPS % inhibition
# [18] = primary microglia HTS, LPS stimulation, compounds at 10 μM; 10 µM
# [19] = primary microglia HTS, 10 μM, fibrin-stimulated, cell size >800 μm^2 as marker of activation
# [20] = Rattus norvegicus, Microglia, primary microglia HTS, 10 μM, LPS-stimulated, cell size >800 μm^2 as marker of activation; read-out: LPS % inhibition
# [21] = HTS of 1907 compounds, quadrant by fibrin and LPS inhibition
# [22] = primary microglia HTS, 10 μM, LPS assay, cell size <150 μm^2 as marker of toxicity
# [23] = primary microglia HTS, 10 μM, fibrin assay, cell size <150 μm^2 as marker of toxicity
# [24] = primary HTS, 10 μM, fibrin-stimulated primary microglia
# [25] = Rattus norvegicus, Microglia, primary HTS, 10 μM, LPS-stimulated primary microglia; read-out: LPS % inhibition
# [26] = primary HTS, 10 μM, LPS assay, dead cells size <150 μm2
# [27] = primary HTS, 10 μM, fibrin assay, dead cells size <150 μm2
structure (smiles),measurement,setting,value
C#C[C@]1(O)CC[C@H]2[C@@H]3CCC4=Cc5oncc5C[C@]4(C)[C@H]3CC[C@@]21C [Danazol],inhibition at 10 µM,[1]; [8],-14%
same,inhibition at 10 µM,[1]; [9],105%
same,inhibition at 10 µM,[2]; [10],99%
same,inhibition at 10 µM,[2]; [11],5%
same,Quadrant (FIG. 5b),[3]; [12],Q4
same,Quadrant (FIG. 5b),[3]; [13],Q2
same,LPS % cell toxicity,primary rat microglia [4],0%
same,LPS % cell toxicity,primary rat microglia [5]; [14],14%
same,Fibrin % cell toxicity,"primary rat microglia [6]; primary microglia HTS, fibrin assay, dead cells (size <150 μm2), compounds at 10 μM",1%
same,Fibrin % cell toxicity,primary rat microglia [6]; [15],28%
O=c1[nH]c(=O)n([C@H]2C[C@H](O)[C@@H](CO)O2)cc1I [Idoxuridine],Quadrant (FIG. 5b),[3]; [13],Q4
same,Fibrin % cell toxicity,primary rat microglia [7]; rat,1%
Nc1nc(Cl)nc2c1ncn2[C@@H]1O[C@H](CO)[C@@H](O)[C@@H]1F [Clofarabine],LPS % inhibition,"[2]; primary HTS, 10 μM, LPS-stimulated primary microglia",−2% and 8%
same,Quadrant (FIG. 5b),"[3]; primary HTS, 10 μM",Q4
same,Fibrin % cell toxicity,primary rat microglia [7]; rat,1%
CCC(C)n1ncn(-c2ccc(N3CCN(c4ccc(OCC5COC(Cn6cncn6)(c6ccc(Cl)cc6Cl)O5)cc4)CC3)cc2)c1=O (stereo not shown) [Itraconazole],Quadrant (FIG. 5b),[3]; [13],Q4
same,Fibrin % cell toxicity,primary rat microglia [7]; rat,1%
C#C[C@]1(O)CC[C@H]2[C@@H]3CCC4=CC(=O)CC[C@@H]4[C@H]3CC[C@@]21C [Norethisterone],Fibrin % inhibition,[1],18%
same,LPS % inhibition,[2],1%
same,Quadrant (FIG. 5b),[3],Q4
same,Fibrin % cell toxicity,primary rat microglia [7]; rat,1%
[H]/N=C(/N)N/C(=N/[H])NCCc1ccccc1 [Phenformin],inhibition at 10 µM,[1],-30%
same,inhibition at 10 µM,[2]; [16],13%
same,Quadrant (FIG. 5b),[3],Q4
same,Fibrin % cell toxicity,primary rat microglia [7]; rat,1%
CC1(C)S[C@@H]2[C@H](NC(=O)[C@H](N)c3ccc(O)cc3)C(=O)N2[C@H]1C(=O)O [Amoxicillin],inhibition at 10 µM,[1],-14%
same,inhibition at 10 µM,[2]; [17],12%
same,Quadrant (FIG. 5b),[3],Q4
same,Fibrin % cell toxicity,primary rat microglia [7]; rat,0%
CC(=O)c1ccc2c(c1)N(CCCN1CCC(CCO)CC1)c1ccccc1S2 [Piperacetazine],inhibition at 10 µM,"[1]; primary microglia HTS, fibrin stimulation, cell size >800 μm2 as marker of activation",-32%
same,inhibition at 10 µM,"[2]; Rattus norvegicus, Microglia, 48 h; read-out: LPS % inhibition",48%
same,Quadrant (FIG. 5b),[3]; classification by fibrin and LPS inhibition in HTS,Q4
same,Fibrin % cell toxicity,primary rat microglia [7]; rat,0%
CCCCCCCCCCC[C@@H](C[C@@H]1OC(=O)[C@H]1CCCCCC)OC(=O)[C@H](CC(C)C)NC=O [Orlistat],inhibition at 10 µM,[1]; [9],17%
same,Quadrant (FIG. 5b),[3]; [13],Q4
same,Fibrin % cell toxicity,primary rat microglia [7]; rat,1%
C=C1C[C@@H]2[C@H](CC[C@]3(C)C(=O)CC[C@@H]23)[C@@]2(C)C=CC(=O)C=C12 [Exemestane],inhibition at 10 µM,[1]; [8],22%
same,Fibrin % inhibition,"[1]; primary microglia HTS, fibrin stimulation, compounds at 10 μM, 10 µM",31%
same,inhibition at 10 µM,[2]; [11],21%
same,LPS % inhibition,[2]; [18],34%
same,Quadrant (FIG. 5b),[3]; [12],Q4
same,Fibrin % cell toxicity,primary rat microglia [7]; rat,1%
CN(Cc1cnc2nc(N)nc(N)c2n1)c1ccc(C(=O)N[C@@H](CCC(=O)O)C(=O)O)cc1 (racemic) [Methotrexate(+/−)],Fibrin % inhibition,[1]; [9],0%
same,LPS % inhibition,"[2]; primary microglia HTS, LPS stimulation; increased cell size (>800 μm^2) as marker of activation",0%
same,Fibrin % cell toxicity,primary rat microglia [7],0%
CC[C@H](C)C(=O)O[C@H]1C[C@@H](C)C=C2C=C[C@H](C)[C@H](CC[C@@H]3C[C@@H](O)CC(=O)O3)[C@H]21 [Lovastatin],inhibition at 10 µM,[1],106%
same,inhibition at 10 µM,[2]; [16],87%
same,Quadrant (FIG. 5b),[3],Q2
same,Fibrin % cell toxicity,primary rat microglia [7]; rat,3%
CC(=O)O[C@]1(C(C)=O)CC[C@H]2[C@@H]3C=C(Cl)C4=CC(=O)[C@@H]5C[C@@H]5[C@]4(C)[C@H]3CC[C@@]21C [Cyproterone Acetate],LPS % inhibition,[2]; [18],12% and 3%
same,Quadrant (FIG. 5b),[3]; [12],Q4
same,Fibrin % cell toxicity,primary rat microglia [7]; rat,1%
O=C(O)CN(CCN(CC(=O)O)CC(=O)O)CC(=O)O [Edetic Acid],Quadrant (FIG. 5b),[3],Q4
same,Fibrin % cell toxicity,primary rat microglia [7]; rat,0%
Clc1ccc(C(Cn2ccnc2)OCc2ccsc2Cl)c(Cl)c1 (stereo not shown) [Tioconazole],LPS % inhibition,[2]; 10 µM,8%
same,inhibition at 10 µM,[2]; [17],12%
same,Quadrant (FIG. 5b),[3],Q4
same,Fibrin % cell toxicity,primary rat microglia [7]; rat,1%
C[C@]12CC[C@@H]3c4ccc(O)cc4CC[C@H]3[C@@H]1CCC2=O [Estrone],inhibition at 10 µM,[1]; [8],35%
same,inhibition at 10 µM,[1]; [9],106%
same,inhibition at 10 µM,[2]; [10],106%
same,inhibition at 10 µM,[2]; [11],16%
same,Quadrant (FIG. 5b),[3]; [12],Q4
same,Quadrant (FIG. 5b),[3]; [13],Q2
same,LPS % cell toxicity,primary rat microglia [4],0%
same,LPS % cell toxicity,primary rat microglia [5]; [14],25%
CCCCC1(COC(=O)CCC(=O)O)C(=O)N(c2ccccc2)N(c2ccccc2)C1=O [Suxibuzone],inhibition at 10 µM,[1]; [19],25%
same,inhibition at 10 µM,[2]; [20],23%
same,Quadrant (FIG. 5b),[3]; [21],Q4
same,LPS % cell toxicity,primary rat microglia [5]; [22],0%
same,Fibrin % cell toxicity,primary rat microglia [6]; [23],1%
CN(C)CCN(Cc1ccccc1)c1ccccn1 [Tripelennamine],inhibition at 10 µM,[1]; [19],14%
same,inhibition at 10 µM,[2]; [20],25%
same,Quadrant (FIG. 5b),[3]; [21],Q4
same,LPS % cell toxicity,primary rat microglia [5]; [22],0%
same,Fibrin % cell toxicity,primary rat microglia [6]; [23],1%
CCCCOc1cc(C(=O)OCCN(CC)CC)ccc1N [Oxybuprocaine],inhibition at 10 µM,[1]; [9],7%
same,inhibition at 10 µM,[2]; [10],11%
same,Quadrant (FIG. 5b),[3]; [13],Q4
same,LPS % cell toxicity,primary rat microglia [5]; [14],0%
same,Fibrin % cell toxicity,primary rat microglia [6]; [15],1%
C[C@H](CS)C(=O)N1CCC[C@H]1C(=O)O [Captopril],inhibition at 10 µM,[1]; [24],-11%
same,inhibition at 10 µM,[2]; [25],12%
same,Quadrant (FIG. 5b),"[3]; primary HTS, 10 μM",Q4
same,LPS % cell toxicity,primary rat microglia [5]; [26],1%
same,Fibrin % cell toxicity,primary rat microglia [6]; [27],1%
Cc1cccc(C)c1NC(=O)C1CCCCN1C (stereo not shown) [Mepivacaine],inhibition at 10 µM,[1]; [9],7%
same,inhibition at 10 µM,[2]; [10],10%
same,Quadrant (FIG. 5b),[3]; [13],Q4
same,LPS % cell toxicity,primary rat microglia [5]; [14],0%
same,Fibrin % cell toxicity,primary rat microglia [6]; [15],0%
"O=c1oc2cc(O)ccc2s1 [Thioxolone, Tioxolone]",Fibrin % inhibition,[1]; [19],−18%
same,LPS % inhibition,"[2]; primary microglia HTS, 10 μM, LPS-stimulated, cell size >800 μm^2 as marker of activation",12%
same,Quadrant (FIG. 5b),[3]; [21],Q4
same,LPS % cell toxicity,primary rat microglia [5]; [22],0%
same,Fibrin % cell toxicity,primary rat microglia [6]; [23],0%
NC(=O)c1cc[n+](CC2=C(C(=O)O)N3C(=O)[C@@H](NC(=O)[C@@H](c4ccccc4)S(=O)(=O)[O-])[C@H]3SC2)cc1 [Cefsulodin Sodium],inhibition at 10 µM,[1]; [24],3%
same,inhibition at 10 µM,[2]; [25],14%
same,Quadrant (FIG. 5b),"[3]; primary HTS, 10 μM",Q4
same,LPS % cell toxicity,primary rat microglia [5]; [26],0%
same,Fibrin % cell toxicity,primary rat microglia [6]; [27],0%
CS(=O)(=O)c1ccc([C@@H](O)[C@@H](CO)NC(=O)C(Cl)Cl)cc1 [Thiamphenicol],inhibition at 10 µM,[1]; [19],-19%
same,inhibition at 10 µM,[2]; [20],12%
same,Quadrant (FIG. 5b),[3]; [21],Q4
same,LPS % cell toxicity,primary rat microglia [5]; [22],0%
same,Fibrin % cell toxicity,primary rat microglia [6]; [23],0%
